Laboratory results taken from US4851440A, “Leukotriene antagonists, processes for the preparation thereof, the use thereof for the treatment of diseases, and precursors” (Hoechst Aktiengesellschaft, priority 1987, dated 1989).
Converted amounts (≈) assume the structure as drawn.

Tests used:
Assay type in all cases: cell-based
LTD4 = assay: Inhibition of the LTD4-induced contraction of strips of guinea pig lung; conditions: Cavia porcellus; LTD4 3 ng/ml of bath liquid; lung strips pretreated with indomethacin (10^-6 g/ml); substance added at maximum contraction plateau; 37° C.; read-out: IC50 versus LTD4
Description: (§1) The leukotriene-antagonistic action of the substances of the general formula I according to the invention is determined by the inhibition of the leukotriene-induced contraction of strips of guinea pig lung. The method which is used is a modification of the tests described by Foreman, Shelly and Weber (Arch. Int. Pharmacodyn. 278, 193-206 (1985)).
(§2) Guinea pigs are sacrificed by an overdose of ether. The thoracic cavity is opened; the lungs are removed and cut into strips 5 cm long, which are stored in physiological saline. For the measurement, the strips of lung are placed in an organ bath filled with Ringer's solution which is equilibrated at 37° C. and through which carbogen (O2 /CO2 95:5 parts by volume) is passed. The strips are left to equilibrate under a load of 0.5-1 g for 30-60 minutes. The strips of lung are pretreated with indomethacin (10^-6 g/ml of bath liquid) before the test starts.
(§3) The contraction is induced by adding LTC4, LTD4 or LTE4 in a concentration of 3 ng/ml of bath liquid. The test substances are administered therapeutically into the bath, after the maximum contraction plateau has been reached, in several concentrations and at time intervals of 10 minutes. 6-12 strips of lung are used for each concentration of the test substances.
(§4) The concentrations of the test substances at which the contraction is reduced by 50% (IC50) are indicated in μg/ml.

LTE4 = assay: Inhibition of the LTE4-induced contraction of strips of guinea pig lung; conditions: Cavia porcellus; LTE4 3 ng/ml of bath liquid; lung strips pretreated with indomethacin (10^-6 g/ml); substance added at maximum contraction plateau; 37° C.; read-out: IC50 versus LTE4
Description: as §1, §2, §3, §4

LTC4 = assay: Inhibition of the LTC4-induced contraction of strips of guinea pig lung; conditions: Cavia porcellus; LTC4 3 ng/ml of bath liquid; lung strips pretreated with indomethacin (10^-6 g/ml); substance added at maximum contraction plateau; 37° C.; read-out: IC50 versus LTC4
Description: as §1, §2, §3, §4

SMILES	IC50 (LTD4)	IC50 (LTE4)	IC50 (LTC4)
COC(=O)COC[C@@H](O)[C@@H](Sc1cccc(OC)c1)c1ccccc1 (racemic) [Compound A, Methyl (5RS,6SR)-5-hydroxy-6-(3-methoxyphenylthio)-6-phenyl-3-oxahexanoate]	0.3 µg/mL (≈ 0.828 µM)	1 µg/mL (≈ 2.76 µM)	0.6 µg/mL (≈ 1.66 µM)
COC(=O)CSC[C@@H](O)[C@@H](Sc1cccc(OC)c1)c1ccccc1 (racemic) [Compound B, Methyl (5RS,6SR)-5-hydroxy-6-(3-methoxyphenylthio)-6-phenyl-3-thiahexanoate]	0.6 µg/mL (≈ 1.59 µM)	1 µg/mL (≈ 2.64 µM)	0.6 to 1 µg/mL (≈ 1.59 to 2.64 µM)
COC(=O)CSC[C@H](O)[C@H](Sc1cccc(OC)c1)c1ccccc1 [Compound C, Methyl (5 S,6 R)(-)-5-hydroxy-6-(3-methoxyphenylthio)-6-phenyl-3-thiahexanoate]	0.1 µg/mL (≈ 0.264 µM)	0.3 to 0.6 µg/mL (≈ 0.793 to 1.59 µM)	0.3 to 0.6 µg/mL (≈ 0.793 to 1.59 µM)

Now from value to molecule:

IC50 (LTD4)	IC50 (LTE4)	IC50 (LTC4)	SMILES
0.5 µg/mL (≈ 1.68 µM)	> 10 µg/mL	> 10 µg/mL	CCCS[C@@H](c1ccccc1)[C@H](O)COCC(=O)OC (racemic) [Compound D, Methyl (5RS,6SR)-5-hydroxy-6-phenyl-3-oxa-7-thiadecanoate]
0.6 to 1 µg/mL (≈ 1.91 to 3.18 µM)	6 to 10 µg/mL (≈ 19.1 to 31.8 µM)	6 µg/mL (≈ 19.1 µM)	CCCS[C@@H](c1ccccc1)[C@H](O)CSCC(=O)OC (racemic) [Compound E, Methyl (5RS,6SR)-5-hydroxy-6-phenyl-3,7-dithiadecanoate]
